# Data reported in the METLIN SMRT retention time set (Domingo-Almenara et al. 2019).
# Assay: gradient 5% acetonitrile 3 min, to 50% in 2 min, to 85% in 15 min, held 3 min, 100 µL/min
# Conditions: column: Zorbax Extend-C18 2.1 x 50 mm; eluents: water / acetonitrile, 0.1% formic acid
# Summary of the method: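 Retention times come from adduct peaks that were picked computationally and then checked by hand. The standards, pure and pooled in mixtures of ~100 molecules, were run on a Zorbax Extend-C18 column (2.1 × 50 mm, 1.8 μm) at 100 μL/min with water and acetonitrile, each with 0.1% formic acid. Detection was by quadrupole time-of-flight mass spectrometry in positive and negative ionization mode, with a dead volume of 40 μL and a dwell volume of 900 μL.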
row,SMILES,RP-LC retention time [s]
1,O=C(Cc1c[nH]c2ccccc12)N1CCN(c2cc(-c3cccs3)[nH]n2)CC1,756
2,CC1CCN(c2cc(N3CCN(C)CC3)ccc2NC(=O)c2cc(C#N)c[nH]2)CC1,595
3,Cc1ccc(C(=O)N2CCC3(CC2)N(C)C(=O)CS3(=O)=O)s1,614
4,O=C(NC1CCCC1)C1CCCN(c2ccc3cc(S(=O)(=O)N4CCCC4)ccc3n2)C1 (configuration not stated),716
5,CN(C)c1ccc(CNC(=O)C2CCN(S(=O)(=O)c3ccc4[nH]c(=O)ccc4c3)CC2)cc1,580
6,CCOc1cc(=O)n2c(c1C(=O)Nc1ccc(Br)cc1)CCCC2,798
7,CCCC(NC(=O)c1ccc(C(F)(F)F)cc1)C(=O)Nc1nc2ccccc2[nH]1 (configuration not stated),802
8,Cc1cccc(C)c1Nc1c(-c2ccccc2)nc2ncccn12,786
9,Cc1ccc(C2Cn3nnc(-c4nc(-c5ccc6c(c5)OCO6)no4)c3CO2)c(C)c1 (configuration not stated),1250
10,CCCn1nnc(NCc2ccc(-c3ccc(Br)cc3Br)o2)n1,1230
11,CCN(CC)c1ccc(Nc2nc(-c3ccc(OC)cc3)cs2)cc1,742
12,CCN1C(=O)COc2ccc(-c3noc(-c4cnccn4)n3)cc21,802
13,C=Cc1ccc(Cn2cc(S(=O)(=O)N3CCCC3)ccc2=O)cc1,886
14,Cc1ccc(-n2cc(C(=O)N3CCC(C(N)=O)CC3)nn2)cc1,641
15,CCn1cc(CCN2CCN(C(=O)C3CCCC3)CC2)c2cccnc21,597
16,Cc1nnc(N2CCC(C(=O)N3CCCC3)CC2)c2nn(-c3ccccc3)c(C)c12,658
17,Cc1nc(-c2ccccc2)sc1C(=O)N1CCC(CC(=O)N2CCOCC2)CC1,667
18,Cc1nc2cc(-c3noc(COc4ccc(Cl)cc4)n3)ccc2o1,1060
19,CC1=C(c2ccc(C)cc2)S(=O)(=O)N=C1N1CCCN(C(=O)CC2CCCCC2)CC1,962

row,SMILES,RP-LC retention time [s]
1,CC(C)c1ccc(S(=O)(=O)N2C[C@@H](F)C[C@H]2C(=O)N2CCc3ccccc3C2)cc1,1060
2,Cc1ccn2cc(-c3ccc(NC(=O)C(C)Oc4ccccc4)cc3)nc2n1 (configuration not stated),672
3,O=C(Cc1cccc(F)c1)N1CCCC1c1nc(-c2ccc(F)cc2)no1 (configuration not stated),1010
4,CC(NC(=O)C1(c2ccc(NS(C)(=O)=O)cc2)CCCCC1)c1ccccc1 (configuration not stated),926
5,COc1ccc(NC(=O)CSc2nccnc2Sc2ccc(C)cc2)cc1OC,997
6,Cc1ccc(=O)n(CC(=O)N2CCOCC2)n1,514
7,Cc1nnc2ccc(-c3noc(Cc4cccc(F)c4)n3)cn12,787
8,O=C(NCCN1C(=O)C2(CCCCC2)C1c1ccccc1)Nc1ccccc1F (configuration not stated),965
9,Cc1ccc(N2CCC(NC(=O)c3ccccc3C(F)(F)F)C2=O)cc1 (configuration not stated),885
10,CC(=O)Nc1ccc(NC(=O)c2nn(-c3ccc(F)cc3)c3ccccc3c2=O)cc1,778
11,COc1ccc(OCc2nc(-c3ccc(-c4csc(C)n4)cc3)no2)cc1,1170
12,Oc1ccccc1-c1nc2ccc(Cl)cn2c1Nc1ccc(Cl)cc1,1090
13,COc1ccc(-c2ncc3c(n2)CCN(C(=O)Nc2cccc(Cl)c2C)C3)cc1,1170
14,CC1CCN(c2cc(-n3cnc(C(=O)N4CCC(N5CCCCC5)CC4)c3)ncn2)CC1,662
15,Cn1cc(NC(=O)Nc2ccc(F)c(F)c2)c2ccccc21,848
16,Cc1cc(C)nc(Nc2nc(CC(=O)N3CCN(C4CCCCC4)CC3)cs2)n1,558
17,Cn1nc(-c2nnc(-c3ccccc3)o2)c2c1CCN(S(=O)(=O)c1ccc(C#N)cc1)C2,897
18,Cc1cc(-c2c(C)sc(C)c2S(=O)(=O)NC2CCCc3ccccc32)n[nH]1 (configuration not stated),1120

# Further lines, results first:
row,RP-LC retention time [s],SMILES
1,639,Cn1nc(C(=O)N2CC(c3nc(-c4cccs4)no3)C2)ccc1=O
2,917,CC(C)CCNC(=O)CSc1nc(N2CCc3ccccc3C2)nc2ccccc12
3,780,Cc1nn(-c2ccccc2)c2c1N(CCCC(=O)NC1CC1)C(=O)CS2
4,698,c1ccc(OCc2nc(-c3ccc4c(c3)nnn4CCN3CCCCC3)no2)cc1
5,693,CCc1nnc(-c2ccc(=O)n(CC(=O)Nc3ccc(C)cc3C)c2)o1
6,705,O=C(Cc1ccccc1Cl)Nc1nnc(C2CC(=O)N(c3ccc(F)cc3)C2)o1 (configuration not stated)
7,610,COCCN1C(=O)c2cccn2CC1CNC(=O)Cc1c(C)noc1C (configuration not stated)
8,875,COc1ccc(-c2cn3c(CC(=O)N(Cc4cccs4)C4CCCC4)csc3n2)cc1OC
9,791,CCSc1ccccc1C(=O)NCCCn1cccc1
10,827,CCCNC(=O)Nc1ccc(C)cc1C
11,630,Cn1ncc(N2CCC(C(=O)NC3CCCC3)C2)cc1=O (configuration not stated)
12,986,Cc1ccc(C)c(N2CCN(C(=O)c3cc(C)n4nccc4n3)CC2)c1
13,608,CCCOc1cc(N2CCN(C(=O)c3ccc4c(c3)OCO4)CC2)nc(C)n1
14,807,CCN1C(=O)c2cc(C(=O)Nc3ccc(C)cc3)nn2CC1(C)C(=O)NC1CCCC1 (configuration not stated)
15,1140,Cc1cc(-c2c(C)sc(C)c2S(=O)(=O)NCC(C)c2ccccc2)n[nH]1 (configuration not stated)
16,777,CCOC(=O)c1ccc(NS(=O)(=O)c2cc3n(c2)CCN(C(C)C)C3=O)cc1
17,1000,C=CCn1c(=O)c2ccccc2n(Cc2nc(-c3ccccc3OCC)no2)c1=O
18,1010,CCc1ccc(S(=O)(=O)N2CCC(c3nc(C(=O)N4CCCC4)c(C)o3)CC2)cc1
19,770,C[C@H]1CN(C(=O)Nc2ccc(F)cc2F)C[C@@H]1c1nc(-c2cccnc2)no1
20,666,Cc1noc(C)c1CCC(=O)N1CCC(c2nnc(-c3ccco3)s2)CC1
21,772,O=C(NCCn1c(=O)n(Cc2ccc(F)cc2)c2cccnc21)c1cccs1
22,793,CC(C)n1nnc2cc(C(=O)N(C)CC(=O)Nc3ccc(Cl)cc3)ccc21
23,639,Cc1cccc(-n2ccn(CC#N)c(=O)c2=O)c1C
24,576,CC1=C(C(=O)Nc2ccc(C(=O)NCCCN3CCN(C4CCCCC4)CC3)cc2)SCCO1
25,930,Cc1ccc(-c2csc(NC(=O)Cc3csc(C)n3)n2)cc1
26,594,CCC(=O)Nc1ccc2nc(N3CCN(CC(=O)Nc4c(C)cccc4C)CC3)cc(C(=O)O)c2c1
27,953,Cc1cc(=O)n(CC(=O)Nc2ccc(Br)cc2F)c(N2CCc3ccccc3C2)n1
28,802,O=C(CCCSc1ccc(NC(=O)c2ccc(F)cc2)nn1)NCc1cccs1
29,988,COc1ccc(-c2noc(C3CC(=O)N(c4cc(C)ccc4C)C3)n2)cc1 (configuration not stated)
30,812,CC(C)c1cccc(NC(=O)Cn2ncc3c(c2=O)N(C2CC2)C(=O)CS3)c1
